System: HER2
Test: HER2 degradation assay with BT-474 cell line (Example 12, FACS)
Format: cell-based, human
Description: HER2 has emerged as a key target for anticancer drugs due to its intrinsic involvement in the phosphatidylinositol-3-kinase-Akt/protein kinase B (PI3K-Akt) and the mitogen-activated protein kinase (MAPK) pathways, both of which suppress apoptosis and promote tumor cell survival, gene transcription, angiogenesis, cellular proliferation, migration, mitosis, and differentiation. The degradation of HER2 is a measure of efficacy of anticancer therapeutics that target Hsp90. Accordingly, the SDC-TRAP molecules of the invention that comprise a binding moiety that binds Hsp90 were tested in the following HER2 degradation assay.
BT-474 cells (human breast cancer cell line ATCC HTB-20) were obtained from ATCC and seeded into 12-well tissue culture plates at 0.2×10^6/1.8 mL/well. […] Each test compound was titrated in 4-fold dilutions from 5 μM to 78 nM with DMSO and 200 μL of the titration was added to each well of the cell plate. The DMSO final concentration was 0.2%. Cells were incubated overnight at 37° C. in 5% CO2.
Media was decanted from the plate, cells were washed 1× in PBS. 400 μL trypsin (EDTA) per well was added, and the cells were incubated for 2 to 3 minutes. Cells were collected into FACS tubes containing 1 ml culture medium to neutralize the trypsin and were centrifuged for 5 minutes at 1200 rpm. Supernatant was decanted and the cells were resuspended in 5 μL FITC (anti HER2/nu)/200 μL staining buffer (1×PBS+1% FBS+0.05% Sodium Azide)/tube. Controls were 5 μL IgG isotype control and staining buffer only. Tubes were incubated for 30 minutes in the dark at room temperature. 1 mL staining buffer was added to each tube and the tubes were centrifuged for 6 minutes at 1200 rpm. The supernatant was decanted and 300 μL staining buffer was added to each tube, which was store at 4° C. fpr FACS (cytometer) analysis. The cytometer readout was normalized and the potency of each compound is evaluated with IC50 calculated with XLfit™ software.

| Compound | IC50 [nM] |
| --- | --- |
| COc1ccc(/C=C\c2cc(OC)c(OC)c(OC)c2)cc1OC(=O)N1CCN(Cc2ccc(-n3c(O)nnc3-c3cc(C(C)C)c(O)cc3O)cc2)CC1 [SDC-TRAP-0085, (Z)-2-methoxy-5-(3,4,5-trimethoxystyryl)phenyl 4-(4-(3-(2,4-dihydroxy-5-isopropylphenyl)-5-hydroxy-4H-1,2,4-triazol-4-yl)benzyl) piperazine-1-carboxylate] | 889 |
| CCc1c2c(nc3ccc(OC(=O)N(C)CCCN4CCN(Cc5ccc(-n6c(O)nnc6-c6cc(C(C)C)c(O)cc6O)cc5)CC4)cc13)-c1cc3c(c(=O)n1C2)COC(=O)[C@]3(O)CC [SDC-TRAP-0065, (S)-4,11-diethyl-4-hydroxy-3,14-dioxo-3,4,12,14-tetrahydro-1H-pyrano[3′,4′:6,7]indolizino[1,2-b]quinolin-9-yl (3-(4-(4-(3-(2,4-dihydroxy-5-isopropylphenyl)-5-hydroxy-4H-1,2,4-triazol-4-yl)benzyl)piperazin-1-yl)propyl)(methyl)carbamate] | 661 |
| CCc1c2c(nc3ccc(OC(=O)N(C)CC(=O)N4CCC(CCn5ccc6cc(-n7c(O)nnc7-c7cc(C(C)C)c(O)cc7O)ccc65)CC4)cc13)-c1cc3c(c(=O)n1C2)COC(=O)[C@]3(O)CC [SDC-TRAP-0207, (S)-4,11-diethyl-4-hydroxy-3,14-dioxo-3,4,12,14-tetrahydro-1H-pyrano[3′,4′:6,7]indolizino[1,2-b]quinolin-9-yl (2-(4-(2-(5-(3-(2,4-dihydroxy-5-isopropylphenyl)-5-hydroxy-4H-1,2,4-triazol-4-yl)-1H-indol-1-yl)ethyl)piperidin-1-yl)-2-oxoethyl)(methyl)carbamate] | > 5000 |
| CCc1c2c(nc3ccc(OC(=O)N4CCC(CN5CCN(Cc6ccc(-n7c(O)nnc7-c7cc(C(C)C)c(O)cc7O)cc6)CC5)CC4)cc13)-c1cc3c(c(=O)n1C2)COC(=O)[C@]3(O)CC [SDC-TRAP-0088] | 221 |
| CCc1c2c(nc3ccc(OC(=O)N4CCC(CCN5CCN(c6ccc(-n7c(O)nnc7-c7cc(C(C)C)c(O)cc7O)cc6)CC5)CC4)cc13)-c1cc3c(c(=O)n1C2)COC(=O)C3(O)CC (stereo not shown) [SDC-TRAP-0070, 4,11-diethyl-4-hydroxy-3,14-dioxo-3,4,12,14-tetrahydro-1H-pyrano[3′,4′:6,7]indolizino[1,2-b]quinolin-9-yl 4-(2-(4-(4-(3-(2,4-dihydroxy-5-isopropylphenyl)-5-hydroxy-4H-1,2,4-triazol-4-yl)phenyl)piperazin-1-yl)ethyl)piperidine-1-carboxylate] | 263 |
| CCc1c2c(nc3ccc(O)cc13)-c1cc3c(c(=O)n1C2)COC(=O)[C@@]3(CC)OC(=O)N1CCC(N2Cc3ccc(-n4c(O)nnc4-c4cc(C(C)C)c(O)cc4O)cc3C2)CC1 [SDC-TRAP-0092, (S)-4,11-diethyl-9-hydroxy-3,14-dioxo-3,4,12,14-tetrahydro-1H-pyrano[3′,4′:6,7]indolizino[1,2-b]quinolin-4-yl 4-(5-(3-(2,4-dihydroxy-5-isopropylphenyl)-5-hydroxy-4H-1,2,4-triazol-4-yl)isoindolin-2-yl)piperidine-1-carboxylate] | 4710 |
| CCc1c2c(nc3ccc(OC(=O)N4Cc5ccc(-n6c(O)nnc6-c6cc(C(C)C)c(O)cc6O)cc5C4)cc13)-c1cc3c(c(=O)n1C2)COC(=O)C3(O)CC (stereo not shown) [SDC-TRAP-0083, 4,11-diethyl-4-hydroxy-3,14-dioxo-3,4,12,14-tetrahydro-1H-pyrano[3′,4′:6,7]indolizino[1,2-b]quinolin-9-yl 5-(3-(2,4-dihydroxy-5-isopropylphenyl)-5-hydroxy-4H-1,2,4-triazol-4-yl)isoindoline-2-carboxylate] | 1440 |
| CCc1c2c(nc3ccc(O)cc13)-c1cc3c(c(=O)n1C2)COC(=O)[C@@]3(CC)OC(=O)N1CCC(COc2ccc(-n3c(O)nnc3-c3cc(C(C)C)c(O)cc3O)cc2)CC1 [SDC-TRAP-0014, (S)-4,11-diethyl-9-hydroxy-3,14-dioxo-3,4,12,14-tetrahydro-1H-pyrano[3,4:6,7]indolizino[1,2-b]quinolin-4-yl 4-((4-(3-(2,4-dihydroxy-5-isopropylphenyl)-5-hydroxy-4H-1,2,4-triazol-4-yl)phenoxy)methyl)piperidine-1-carboxylate] | > 5000 |
| CCNC(=O)c1nnc(-c2cc(C(C)C)c(O)cc2O)n1-c1ccc(OC2CCN(C(=O)[C@@H]3CCCN3C(=O)O[C@]3(CC)C(=O)OCc4c3cc3n(c4=O)Cc4c-3nc3ccc(O)cc3c4CC)CC2)cc1 [SDC-TRAP-0214, (S)—(S)-4,11-diethyl-9-hydroxy-3,14-dioxo-3,4,12,14-tetrahydro-1H-pyrano[3′,4′:6,7]indolizino[1,2-b]quinolin-4-yl 2-(4-(4-(3-(2,4-dihydroxy-5-isopropylphenyl)-5-(ethylcarbamoyl)-4H-1,2,4-triazol-4-yl)phenoxy)piperidine-1-carbonyl)pyrrolidine-1-carboxylate] | > 5000 |
| CCc1c2c(nc3ccc(OC(=O)N4CCC(CN5CCC(Cc6ccc(-n7c(O)nnc7-c7cc(C(C)C)c(O)cc7O)cc6)CC5)CC4)cc13)-c1cc3c(c(=O)n1C2)COC(=O)C3(O)CC (stereo not shown) [SDC-TRAP-0067, 4,11-diethyl-4-hydroxy-3,14-dioxo-3,4,12,14-tetrahydro-1H-pyrano[3′,4′:6,7]indolizino[1,2-b]quinolin-9-yl 4-((4-(4-(3-(2,4-dihydroxy-5-isopropylphenyl)-5-hydroxy-4H-1,2,4-triazol-4-yl)benzyl)piperidin-1-yl)methyl)piperidine-1-carboxylate] | 196 |
| CCc1c2c(nc3ccc(OC(=O)N4CCN(c5ccc(-n6c(O)nnc6-c6cc(C(C)C)c(O)cc6O)cn5)CC4)cc13)-c1cc3c(c(=O)n1C2)COC(=O)[C@]3(O)CC [SDC-TRAP-0090, (S)-4,11-diethyl-4-hydroxy-3,14-dioxo-3,4,12,14-tetrahydro-1H-pyrano[3′,4′:6,7]indolizino[1,2-b]quinolin-9-yl 4-(5-(3-(2,4-dihydroxy-5-isopropylphenyl)-5-hydroxy-4H-1,2,4-triazol-4-yl)pyridin-2-yl)piperazine-1-carboxylate] | 4600 |
| CCc1c2c(nc3ccc(OC(=O)NCCOCCn4ccc5cc(-n6c(O)nnc6-c6cc(C(C)C)c(O)cc6O)ccc54)cc13)-c1cc3c(c(=O)n1C2)COC(=O)C3(O)CC (stereo not shown) [SDC-TRAP-0016, 4,11-diethyl-4-hydroxy-3,14-dioxo-3,4,12,14-tetrahydro-1H-pyrano[3′,4′:6,7]indolizino[1,2-b]quinolin-9-yl (2-(2-(5-(3-(2,4-dihydroxy-5-isopropylphenyl)-5-hydroxy-4H-1,2,4-triazol-4-yl)-1H-indol-1-yl)ethoxy)ethyl)carbamate] | > 5000 |
| CCc1c2c(nc3ccc(O)cc13)-c1cc3c(c(=O)n1C2)COC(=O)C3(CC)OC(=O)N1CCN(C(=O)CCc2ccc(-n3c(O)nnc3-c3cc(C(C)C)c(O)cc3O)cc2)CC1 (stereo not shown) [SDC-TRAP-0060, 4,11-diethyl-9-hydroxy-3,14-dioxo-3,4,12,14-tetrahydro-1H-pyrano[3′,4′:6,7]indolizino[1,2-b]quinolin-4-yl 4-(3-(4-(3-(2,4-dihydroxy-5-isopropylphenyl)-5-hydroxy-4H-1,2,4-triazol-4-yl)phenyl)propanoyl)piperazine-1-carboxylate] | > 5000 |
| CCc1c2c(nc3ccc(OC(=O)N4CCN(C(=O)c5cc6cc(-n7c(O)nnc7-c7cc(C(C)C)c(O)cc7O)ccc6n5C)CC4)cc13)-c1cc3c(c(=O)n1C2)COC(=O)C3(O)CC (stereo not shown) [SDC-TRAP-0072, 4,11-diethyl-4-hydroxy-3,14-dioxo-3,4,12,14-tetrahydro-1H-pyrano[3′,4′:6,7]indolizino[1,2-b]quinolin-9-yl 4-(5-(3-(2,4-dihydroxy-5-isopropylphenyl)-5-hydroxy-4H-1,2,4-triazol-4-yl)-1-methyl-1H-indole-2-carbonyl)piperazine-1-carboxylate] | > 5000 |
| CCNC(=O)c1nnc(-c2cc(C(C)C)c(O)cc2O)n1-c1ccc(Oc2ccc(C(=O)N(C)CCC(=O)OC3(CC)C(=O)OCc4c3cc3n(c4=O)Cc4c-3nc3ccc(O)cc3c4CC)cc2)cc1 (stereo not shown) [SDC-TRAP-0169, 4,11-diethyl-9-hydroxy-3,14-dioxo-3,4,12,14-tetrahydro-1H-pyrano[3′,4′:6,7]indolizino[1,2-b]quinolin-4-yl 3-(4-(4-(3-(2,4-dihydroxy-5-isopropylphenyl)-5-(ethylcarbamoyl)-4H-1,2,4-triazol-4-yl)phenoxy)-N-methylbenzamido)propanoate] | 611 |
| CCc1c2c(nc3ccc(O)cc13)-c1cc3c(c(=O)n1C2)COC(=O)C3(CC)OC(=O)C1CCN(C(=O)Cc2ccc(-n3c(O)nnc3-c3cc(C(C)C)c(O)cc3O)cc2)CC1 (stereo not shown) [SDC-TRAP-0097, 4,11-diethyl-9-hydroxy-3,14-dioxo-3,4,12,14-tetrahydro-1H-pyrano[3′,4′:6,7]indolizino[1,2-b]quinolin-4-yl 1-(2-(4-(3-(2,4-dihydroxy-5-isopropylphenyl)-5-hydroxy-4H-1,2,4-triazol-4-yl)phenyl)acetyl)piperidine-4-carboxylate] | > 5000 |
